Assay results reported in ChEMBL document CHEMBL1201862, “PubChem BioAssay data set” (2004).
Activity calls are given as the source filed them.

What was measured:
Format in all cases: functional
[1] = target: Protein kinase C theta type (Homo sapiens, UniProt Q04759); assay: Navigating the Kinome. Panel member name: PRKCQ
[2] = target: Dual specificity protein kinase CLK2 (Homo sapiens, UniProt P49760)
[3] = target: 5'-AMP-activated protein kinase catalytic subunit alpha-1 (Homo sapiens, UniProt Q13131)
[4] = target: Proto-oncogene tyrosine-protein kinase receptor Ret (Homo sapiens, UniProt P07949);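 further: measured within a kinome-wide profiling panel, RET as the panel member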
Activin receptor type-1 = Activin receptor type-1 (Homo sapiens, UniProt Q04771); assay: Navigating the Kinome. Panel member name: ACVR1
[5] = target: Serine/threonine-protein kinase pim-1 (Homo sapiens, UniProt P11309)
[6] = target: Tyrosine-protein kinase BTK (Homo sapiens, UniProt Q06187)
[7] = target: Casein kinase I isoform alpha (Homo sapiens, UniProt P48729)
[8] = target: Mitogen-activated protein kinase kinase kinase kinase 2 (Homo sapiens, UniProt Q12851);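 further: measured as one member of a kinome-wide kinase panel, with MAP4K2 as the panel entry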
[9] = target: T1, Serine/threonine-protein kinase Chk1 (Homo sapiens, UniProt O14757);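 further: measured as one member of a kinome-wide kinase profiling panel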
T1 sequence (O14757 whole entry): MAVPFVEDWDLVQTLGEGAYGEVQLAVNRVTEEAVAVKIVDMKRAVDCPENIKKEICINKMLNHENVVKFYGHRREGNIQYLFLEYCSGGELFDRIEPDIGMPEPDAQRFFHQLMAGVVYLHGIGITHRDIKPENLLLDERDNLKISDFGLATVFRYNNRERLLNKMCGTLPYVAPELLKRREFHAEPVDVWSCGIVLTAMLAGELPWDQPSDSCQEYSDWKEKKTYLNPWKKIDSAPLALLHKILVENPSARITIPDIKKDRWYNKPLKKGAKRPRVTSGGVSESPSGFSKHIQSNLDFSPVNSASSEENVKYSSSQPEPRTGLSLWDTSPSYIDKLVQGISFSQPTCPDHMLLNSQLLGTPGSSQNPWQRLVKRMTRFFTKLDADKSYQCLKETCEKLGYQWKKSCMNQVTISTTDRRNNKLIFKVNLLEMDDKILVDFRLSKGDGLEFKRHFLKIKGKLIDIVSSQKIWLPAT

[10] = target: Dual specificity protein kinase CLK4 (Homo sapiens, UniProt Q9HAZ1)
[11] = target: Macrophage-stimulating protein receptor (Homo sapiens, UniProt Q04912); assay: Navigating the Kinome. Panel member name: MST1R
[12] = target: Macrophage colony-stimulating factor 1 receptor (Homo sapiens, UniProt P07333);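 further: value comes from the Navigating the Kinome screening panel, CSF1R member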
[13] = target: Calcium/calmodulin-dependent protein kinase type II subunit alpha (Homo sapiens, UniProt Q9UQM7); assay: Navigating the Kinome. Panel member name: CAMK2A
[14] = target: Casein kinase II subunit alpha (Homo sapiens, UniProt P68400)
[15] = target: T2, Interleukin-1 receptor-associated kinase 4 (Homo sapiens, UniProt Q9NWZ3)
T2 sequence (Q9NWZ3 whole entry): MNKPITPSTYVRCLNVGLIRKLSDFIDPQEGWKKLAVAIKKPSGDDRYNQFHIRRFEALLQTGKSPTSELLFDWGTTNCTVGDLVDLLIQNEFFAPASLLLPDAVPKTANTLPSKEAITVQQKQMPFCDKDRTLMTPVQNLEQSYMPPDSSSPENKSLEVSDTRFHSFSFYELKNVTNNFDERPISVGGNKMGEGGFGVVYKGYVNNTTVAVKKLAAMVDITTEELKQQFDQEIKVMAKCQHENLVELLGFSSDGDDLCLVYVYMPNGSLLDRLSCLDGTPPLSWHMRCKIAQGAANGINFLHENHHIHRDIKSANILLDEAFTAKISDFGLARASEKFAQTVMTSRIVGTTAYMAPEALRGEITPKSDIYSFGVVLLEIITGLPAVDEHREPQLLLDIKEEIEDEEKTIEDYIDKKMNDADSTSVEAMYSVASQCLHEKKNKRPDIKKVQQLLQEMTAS

[16] = target: T3, Sentrin-specific protease 7 (Homo sapiens, UniProt Q9BQF6);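 further: Luminescence-based dose-response confirmation of ultra-high-throughput screening hits, measuring inhibition of SENP7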
T3 sequence (Q9BQF6 whole entry): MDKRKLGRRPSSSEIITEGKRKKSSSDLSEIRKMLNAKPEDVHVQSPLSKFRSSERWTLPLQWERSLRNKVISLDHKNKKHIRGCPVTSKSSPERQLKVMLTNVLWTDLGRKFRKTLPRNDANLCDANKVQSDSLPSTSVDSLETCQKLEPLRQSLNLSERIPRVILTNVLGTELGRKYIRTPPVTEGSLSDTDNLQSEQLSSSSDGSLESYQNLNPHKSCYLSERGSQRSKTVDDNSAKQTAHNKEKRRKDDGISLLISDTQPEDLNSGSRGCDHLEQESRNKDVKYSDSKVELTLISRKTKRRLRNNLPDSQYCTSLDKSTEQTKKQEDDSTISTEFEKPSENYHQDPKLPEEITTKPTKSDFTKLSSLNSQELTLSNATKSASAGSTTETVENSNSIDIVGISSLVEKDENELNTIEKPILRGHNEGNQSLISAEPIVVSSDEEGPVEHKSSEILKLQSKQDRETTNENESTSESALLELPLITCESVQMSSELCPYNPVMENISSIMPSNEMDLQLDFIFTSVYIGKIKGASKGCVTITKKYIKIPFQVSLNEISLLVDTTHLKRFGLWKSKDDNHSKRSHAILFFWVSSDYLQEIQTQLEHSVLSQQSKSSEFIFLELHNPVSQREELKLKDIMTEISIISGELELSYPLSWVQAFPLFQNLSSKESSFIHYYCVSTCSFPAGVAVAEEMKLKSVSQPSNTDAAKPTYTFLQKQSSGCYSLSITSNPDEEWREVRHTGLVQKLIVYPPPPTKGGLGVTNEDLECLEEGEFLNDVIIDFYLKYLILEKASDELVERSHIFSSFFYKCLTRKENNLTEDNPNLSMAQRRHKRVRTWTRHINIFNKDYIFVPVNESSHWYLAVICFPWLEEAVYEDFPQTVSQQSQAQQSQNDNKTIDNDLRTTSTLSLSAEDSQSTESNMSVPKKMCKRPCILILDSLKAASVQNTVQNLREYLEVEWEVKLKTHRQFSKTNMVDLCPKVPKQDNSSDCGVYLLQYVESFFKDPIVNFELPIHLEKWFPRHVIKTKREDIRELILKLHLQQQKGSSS

Sequence of Serine/threonine-protein kinase pim-1 (P11309 whole entry): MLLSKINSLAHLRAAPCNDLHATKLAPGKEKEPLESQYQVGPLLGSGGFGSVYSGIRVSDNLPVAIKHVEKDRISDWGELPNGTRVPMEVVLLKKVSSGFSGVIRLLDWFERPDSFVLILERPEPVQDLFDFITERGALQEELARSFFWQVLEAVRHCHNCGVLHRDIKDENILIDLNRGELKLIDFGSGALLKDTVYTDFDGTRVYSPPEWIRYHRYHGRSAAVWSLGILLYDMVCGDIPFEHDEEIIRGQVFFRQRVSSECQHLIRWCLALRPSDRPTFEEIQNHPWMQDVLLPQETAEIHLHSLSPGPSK
Sequence of Dual specificity protein kinase CLK2 (P49760 whole entry): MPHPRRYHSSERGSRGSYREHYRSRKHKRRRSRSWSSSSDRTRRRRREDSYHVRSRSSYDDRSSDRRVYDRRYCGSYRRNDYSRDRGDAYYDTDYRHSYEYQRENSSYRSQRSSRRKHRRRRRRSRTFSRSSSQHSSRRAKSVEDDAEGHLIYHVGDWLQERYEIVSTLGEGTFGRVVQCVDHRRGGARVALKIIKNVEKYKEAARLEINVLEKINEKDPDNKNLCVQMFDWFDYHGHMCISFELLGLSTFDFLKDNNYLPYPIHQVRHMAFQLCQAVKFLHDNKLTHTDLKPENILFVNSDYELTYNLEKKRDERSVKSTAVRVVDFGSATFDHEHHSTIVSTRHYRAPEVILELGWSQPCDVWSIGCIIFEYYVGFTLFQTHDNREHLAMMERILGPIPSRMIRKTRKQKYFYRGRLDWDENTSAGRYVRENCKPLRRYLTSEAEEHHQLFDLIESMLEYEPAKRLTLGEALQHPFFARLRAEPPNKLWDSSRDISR
Sequence of Mitogen-activated protein kinase kinase kinase kinase 2 (Q12851 whole entry): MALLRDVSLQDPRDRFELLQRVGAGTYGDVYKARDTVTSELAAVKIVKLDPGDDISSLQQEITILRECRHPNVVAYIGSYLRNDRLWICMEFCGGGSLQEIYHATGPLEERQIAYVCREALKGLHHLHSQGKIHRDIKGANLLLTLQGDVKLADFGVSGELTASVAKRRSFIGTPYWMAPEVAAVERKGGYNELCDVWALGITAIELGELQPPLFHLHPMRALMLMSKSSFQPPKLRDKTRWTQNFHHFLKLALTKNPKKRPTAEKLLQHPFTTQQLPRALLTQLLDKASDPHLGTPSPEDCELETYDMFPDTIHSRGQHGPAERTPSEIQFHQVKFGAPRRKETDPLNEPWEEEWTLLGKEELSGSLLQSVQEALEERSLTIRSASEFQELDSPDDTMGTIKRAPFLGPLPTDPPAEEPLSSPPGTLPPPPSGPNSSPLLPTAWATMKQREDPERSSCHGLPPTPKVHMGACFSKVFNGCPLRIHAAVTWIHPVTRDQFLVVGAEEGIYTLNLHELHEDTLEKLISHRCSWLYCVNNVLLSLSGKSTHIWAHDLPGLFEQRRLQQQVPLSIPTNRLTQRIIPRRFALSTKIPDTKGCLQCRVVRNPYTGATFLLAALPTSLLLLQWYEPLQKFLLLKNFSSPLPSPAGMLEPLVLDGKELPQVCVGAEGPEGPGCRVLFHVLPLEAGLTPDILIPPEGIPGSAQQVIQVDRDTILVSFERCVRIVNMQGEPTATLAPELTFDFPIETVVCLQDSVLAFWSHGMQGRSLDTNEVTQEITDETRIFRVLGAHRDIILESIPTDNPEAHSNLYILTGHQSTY
Sequence of Macrophage colony-stimulating factor 1 receptor (P07333 whole entry): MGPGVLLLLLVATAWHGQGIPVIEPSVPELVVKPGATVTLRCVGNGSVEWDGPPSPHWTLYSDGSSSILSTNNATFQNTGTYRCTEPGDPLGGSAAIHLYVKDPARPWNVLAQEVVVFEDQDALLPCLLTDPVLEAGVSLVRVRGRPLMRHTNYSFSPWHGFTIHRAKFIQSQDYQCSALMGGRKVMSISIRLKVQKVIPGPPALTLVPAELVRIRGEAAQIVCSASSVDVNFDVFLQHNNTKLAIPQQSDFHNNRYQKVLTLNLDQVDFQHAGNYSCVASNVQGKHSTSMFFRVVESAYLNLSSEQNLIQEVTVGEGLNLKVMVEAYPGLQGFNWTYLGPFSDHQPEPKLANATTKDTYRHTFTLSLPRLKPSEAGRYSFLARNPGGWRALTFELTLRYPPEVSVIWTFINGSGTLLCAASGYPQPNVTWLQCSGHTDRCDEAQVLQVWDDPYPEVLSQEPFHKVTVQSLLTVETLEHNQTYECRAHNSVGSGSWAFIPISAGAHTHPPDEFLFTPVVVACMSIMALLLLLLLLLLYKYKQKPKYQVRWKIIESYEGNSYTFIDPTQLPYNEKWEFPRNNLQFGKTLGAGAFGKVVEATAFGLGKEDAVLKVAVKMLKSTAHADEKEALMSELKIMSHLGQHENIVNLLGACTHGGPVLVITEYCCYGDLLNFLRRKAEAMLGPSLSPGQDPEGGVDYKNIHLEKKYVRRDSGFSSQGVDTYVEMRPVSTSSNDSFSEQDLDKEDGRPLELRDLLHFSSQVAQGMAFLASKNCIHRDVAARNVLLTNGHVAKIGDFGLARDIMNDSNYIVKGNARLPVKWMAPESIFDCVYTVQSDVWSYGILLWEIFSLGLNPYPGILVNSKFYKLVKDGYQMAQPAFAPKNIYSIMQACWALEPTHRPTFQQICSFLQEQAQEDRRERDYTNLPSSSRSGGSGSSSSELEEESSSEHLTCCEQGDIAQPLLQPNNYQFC
Sequence of Casein kinase I isoform alpha (P48729 whole entry, canonical isoform): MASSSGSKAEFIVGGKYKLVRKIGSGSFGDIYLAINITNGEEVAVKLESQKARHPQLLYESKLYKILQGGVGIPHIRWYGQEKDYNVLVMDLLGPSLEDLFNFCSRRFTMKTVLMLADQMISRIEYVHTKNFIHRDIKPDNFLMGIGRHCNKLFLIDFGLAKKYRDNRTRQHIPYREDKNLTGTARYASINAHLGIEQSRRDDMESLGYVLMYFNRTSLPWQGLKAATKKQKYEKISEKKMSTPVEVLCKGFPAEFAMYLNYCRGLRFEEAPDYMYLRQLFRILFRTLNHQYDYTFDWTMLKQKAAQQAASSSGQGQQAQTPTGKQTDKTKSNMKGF
Sequence of 5'-AMP-activated protein kinase catalytic subunit alpha-1 (Q13131 whole entry): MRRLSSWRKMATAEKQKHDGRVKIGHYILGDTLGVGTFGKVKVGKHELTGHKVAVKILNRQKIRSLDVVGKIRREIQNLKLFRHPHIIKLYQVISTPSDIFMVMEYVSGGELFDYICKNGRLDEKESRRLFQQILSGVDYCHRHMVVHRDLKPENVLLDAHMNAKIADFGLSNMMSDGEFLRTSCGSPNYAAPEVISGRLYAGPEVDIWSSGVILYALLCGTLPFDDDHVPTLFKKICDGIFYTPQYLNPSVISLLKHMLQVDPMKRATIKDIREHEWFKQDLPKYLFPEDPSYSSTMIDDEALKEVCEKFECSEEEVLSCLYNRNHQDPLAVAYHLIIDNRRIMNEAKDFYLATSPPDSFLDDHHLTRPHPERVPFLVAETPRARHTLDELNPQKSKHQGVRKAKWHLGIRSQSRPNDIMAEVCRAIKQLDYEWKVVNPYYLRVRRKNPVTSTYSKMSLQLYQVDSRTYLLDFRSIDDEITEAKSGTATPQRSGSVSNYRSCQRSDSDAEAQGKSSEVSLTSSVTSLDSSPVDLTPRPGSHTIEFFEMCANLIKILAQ
Sequence of Dual specificity protein kinase CLK4 (Q9HAZ1 whole entry): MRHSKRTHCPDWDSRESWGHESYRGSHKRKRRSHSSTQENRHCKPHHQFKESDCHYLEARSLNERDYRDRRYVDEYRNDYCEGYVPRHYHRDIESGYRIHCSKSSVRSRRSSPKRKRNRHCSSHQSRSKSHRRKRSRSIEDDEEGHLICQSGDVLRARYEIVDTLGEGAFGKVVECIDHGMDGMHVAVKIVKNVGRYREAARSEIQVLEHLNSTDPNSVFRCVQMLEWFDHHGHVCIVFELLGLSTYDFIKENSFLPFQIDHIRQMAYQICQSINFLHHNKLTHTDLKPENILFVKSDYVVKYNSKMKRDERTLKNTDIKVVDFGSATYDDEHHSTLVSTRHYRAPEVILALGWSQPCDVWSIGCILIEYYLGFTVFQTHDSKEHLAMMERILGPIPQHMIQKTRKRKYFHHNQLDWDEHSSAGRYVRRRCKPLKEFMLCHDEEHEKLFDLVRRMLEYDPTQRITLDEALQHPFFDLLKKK
Sequence of Activin receptor type-1 (Q04771 whole entry): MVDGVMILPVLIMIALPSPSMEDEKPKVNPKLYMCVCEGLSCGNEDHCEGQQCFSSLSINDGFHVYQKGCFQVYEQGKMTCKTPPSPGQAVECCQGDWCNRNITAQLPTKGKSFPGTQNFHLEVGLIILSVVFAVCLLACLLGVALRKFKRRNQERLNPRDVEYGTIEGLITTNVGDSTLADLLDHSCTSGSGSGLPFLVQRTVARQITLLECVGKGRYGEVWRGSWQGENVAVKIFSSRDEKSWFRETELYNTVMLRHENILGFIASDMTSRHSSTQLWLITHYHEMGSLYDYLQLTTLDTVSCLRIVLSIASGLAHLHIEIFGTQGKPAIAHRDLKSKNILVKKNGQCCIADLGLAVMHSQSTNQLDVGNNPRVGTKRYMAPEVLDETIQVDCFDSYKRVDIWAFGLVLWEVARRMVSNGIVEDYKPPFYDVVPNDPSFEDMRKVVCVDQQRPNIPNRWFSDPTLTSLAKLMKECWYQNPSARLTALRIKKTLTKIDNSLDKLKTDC
Sequence of Calcium/calmodulin-dependent protein kinase type II subunit alpha (Q9UQM7 whole entry): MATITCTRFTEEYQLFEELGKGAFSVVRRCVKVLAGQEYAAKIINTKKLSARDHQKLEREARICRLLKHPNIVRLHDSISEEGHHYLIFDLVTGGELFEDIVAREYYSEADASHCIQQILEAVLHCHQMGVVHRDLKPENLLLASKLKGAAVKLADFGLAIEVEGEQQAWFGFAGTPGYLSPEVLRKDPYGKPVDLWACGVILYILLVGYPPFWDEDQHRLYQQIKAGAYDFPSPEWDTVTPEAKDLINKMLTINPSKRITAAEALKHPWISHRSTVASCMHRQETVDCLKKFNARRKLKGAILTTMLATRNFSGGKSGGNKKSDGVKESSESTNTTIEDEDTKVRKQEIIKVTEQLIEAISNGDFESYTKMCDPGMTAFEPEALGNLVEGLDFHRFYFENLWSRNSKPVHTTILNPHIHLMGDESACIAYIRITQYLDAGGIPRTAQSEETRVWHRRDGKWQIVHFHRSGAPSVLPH

| Structure (SMILES) | Ki [1] | Ki [2] | Ki [3] | Ki [4] | Ki (Activin receptor type-1) | Ki [5] | Ki [6] | Ki [7] | Ki [8] | Ki [9] | Ki [10] | Ki [11] | Ki [12] | Ki [13] | Ki [14] | Ki [15] | IC50 [16] |
| --- | --- | --- | --- | --- | --- | --- | --- | --- | --- | --- | --- | --- | --- | --- | --- | --- | --- |
| O=c1[nH][nH]c2ccc(Br)cc12 | 31.6 µM (active) | 15.8 µM (active) | 12.6 µM (active) | 25.1 µM (active) | 7.94 µM (active) | 15.8 µM (active) | 31.6 µM (active) | 7.94 µM (active) | 31.6 µM (active) | 2.51 µM (active) | 1.26 µM (active) | 31.6 µM (active) | 39.8 µM (active) | 31.6 µM (active) |  |  |  |
| COc1cc2c(cc1Nc1nc(Nc3cccc(F)c3C(N)=O)c3cc[nH]c3n1)N(C(=O)CN(C)C)CC2 | > 2.51 µM (inactive) | 0.0316 µM (active) | > 3.16 µM (inactive) | > 3.16 µM (inactive) | > 3.98 µM (inactive) | 3.98 µM (active) | > 6.31 µM (inactive) | 1.26 µM (active) | > 2.51 µM (inactive) | 2.51 µM (active) | 0.02 µM (active) | > 3.98 µM (inactive) | > 2.51 µM (inactive) | > 3.98 µM (inactive) | 0.631 µM (active) | 10 µM (active) |  |
| CC(C)c1ccc(-c2nnn(CCC(=O)O)n2)cc1 |  |  |  |  |  |  |  |  |  |  |  |  |  |  |  |  | 7.22 µM (active) |
